From ChEMBL document CHEMBL1201862, “PubChem BioAssay data set” (2004)
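Protocol summary: plate cells (96-well), add compound at 5 concentrations, incubate 48 h, interpolate endpoints linearly. At the GI50, growth is halved.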 The source made the active and inactive calls. Rule as the data show it: active = GI50 up to about 1.1 µM and inactive = higher.

Experiments:
Assay in all cases: NCI anticancer screen, dose series, 48 h
SK-MEL-5 = tested on: SK-MEL-5
LOX IMVI = tested on: LOX IMVI
SN12C = tested on: SN12C
TK-10 = tested on: TK-10
IGROV-1 = tested on: IGROV-1
DLD-1 = tested on: DLD-1
K562 = tested on: K562
UACC-257 = tested on: UACC-257
SW-620 = tested on: SW-620
DMS-273 = tested on: DMS-273
EKVX = tested on: EKVX
UACC-62 = tested on: UACC-62
HCT-116 = tested on: HCT-116
ACHN = tested on: ACHN
CCRF-CEM = tested on: CCRF-CEM
HOP-62 = tested on: HOP-62
NCI-H23 = tested on: NCI-H23
A549 = tested on: A549
HOP-18 = tested on: HOP-18
SNB-75 = tested on: SNB-75
OVCAR-3 = tested on: OVCAR-3
M19-MEL = tested on: M19-MEL
Malme-3M = tested on: Malme-3M
LXFL 529 = tested on: LXFL 529
U-251 = tested on: U-251
SNB-19 = tested on: SNB-19
HT-29 = tested on: HT-29
UO-31 = tested on: UO-31
KM12 = tested on: KM12
CAKI-1 = tested on: CAKI-1
HCT-15 = tested on: HCT-15
M14 = tested on: M14
SF-295 = tested on: SF-295
SR = tested on: SR
NCI-H226 = tested on: NCI-H226
DMS-114 = tested on: DMS-114
OVCAR-5 = tested on: OVCAR-5
OVCAR-8 = tested on: OVCAR-8
HCC 2998 = tested on: HCC 2998
KM-20L2 = tested on: KM-20L2
A498 = tested on: A498
786-0 = tested on: 786-0
NCI-H460 = tested on: NCI-H460
SNB-78 = tested on: SNB-78
XF498 = tested on: XF498
RXF 631 = tested on: RXF 631
SK-MEL-2 = tested on: SK-MEL-2
SK-MEL-28 = tested on: SK-MEL-28
SK-OV-3 = tested on: SK-OV-3
HOP-92 = tested on: HOP-92
HL-60 = tested on: HL-60
COLO 205 = tested on: COLO 205
SF-268 = tested on: SF-268
SF-539 = tested on: SF-539
MOLT-4 = tested on: MOLT-4
OVCAR-4 = tested on: OVCAR-4
RXF 393 = tested on: RXF 393
RPMI-8226 = tested on: RPMI-8226
NCI-H522 = tested on: NCI-H522

c1ccc2c(c1)CCc1c(-c3n[nH]c4c3CCc3ccccc3-4)n[nH]c1-2
GI50 (SK-MEL-5): > 100 µM (inactive) | GI50 (LOX IMVI): > 100 µM (inactive) | GI50 (SN12C): > 100 µM (inactive) | GI50 (TK-10): > 100 µM (inactive) | GI50 (IGROV-1): > 100 µM (inactive) | GI50 (DLD-1): > 100 µM (inactive) | GI50 (K562): 27.9 µM (inactive) | GI50 (UACC-257): > 100 µM (inactive) | GI50 (SW-620): > 100 µM (inactive) | GI50 (DMS-273): > 100 µM (inactive) | GI50 (EKVX): > 100 µM (inactive) | GI50 (UACC-62): > 100 µM (inactive) | GI50 (HCT-116): > 100 µM (inactive) | GI50 (ACHN): > 100 µM (inactive) | GI50 (CCRF-CEM): > 100 µM (inactive) | GI50 (HOP-62): > 100 µM (inactive) | GI50 (NCI-H23): > 100 µM (inactive) | GI50 (A549): > 100 µM (inactive) | GI50 (HOP-18): > 100 µM (inactive) | GI50 (SNB-75): 56.5 µM (inactive) | GI50 (OVCAR-3): > 100 µM (inactive) | GI50 (M19-MEL): > 100 µM (inactive) | GI50 (Malme-3M): > 100 µM (inactive) | GI50 (LXFL 529): > 100 µM (inactive) | GI50 (U-251): > 100 µM (inactive) | GI50 (SNB-19): > 100 µM (inactive) | GI50 (HT-29): 76.7 µM (inactive) | GI50 (UO-31): > 100 µM (inactive) | GI50 (KM12): > 100 µM (inactive) | GI50 (CAKI-1): > 100 µM (inactive) | GI50 (HCT-15): > 100 µM | GI50 (M14): > 100 µM (inactive) | GI50 (SF-295): > 100 µM (inactive) | GI50 (SR): 46.9 µM (inactive) | GI50 (NCI-H226): > 100 µM (inactive) | GI50 (DMS-114): > 100 µM (inactive) | GI50 (OVCAR-5): > 100 µM (inactive) | GI50 (OVCAR-8): > 100 µM (inactive) | GI50 (HCC 2998): > 100 µM (inactive) | GI50 (KM-20L2): > 100 µM (inactive) | GI50 (A498): > 100 µM (inactive) | GI50 (786-0): > 100 µM (inactive) | GI50 (NCI-H460): > 100 µM (inactive) | GI50 (SNB-78): > 100 µM (inactive) | GI50 (XF498): > 100 µM (inactive) | GI50 (RXF 631): > 100 µM (inactive) | GI50 (SK-MEL-2): > 100 µM (inactive) | GI50 (SK-MEL-28): > 100 µM (inactive) | GI50 (SK-OV-3): > 100 µM (inactive) | GI50 (HOP-92): > 100 µM (inactive) | GI50 (HL-60): > 100 µM (inactive) | GI50 (COLO 205): > 100 µM (inactive) | GI50 (SF-268): > 100 µM (inactive) | GI50 (SF-539): > 100 µM (inactive) | GI50 (MOLT-4): 87.9 µM (inactive)

Cc1ccc([Se][Se]c2ccc(C)cc2)cc1
GI50 (SK-MEL-5): 16 µM (inactive) | GI50 (LOX IMVI): 5.42 µM (inactive) | GI50 (SN12C): 26.7 µM (inactive) | GI50 (TK-10): 67.9 µM (inactive) | GI50 (IGROV-1): 38.3 µM (inactive) | GI50 (DLD-1): 17.7 µM (inactive) | GI50 (K562): 5.04 µM (inactive) | GI50 (UACC-257): 17 µM (inactive) | GI50 (SW-620): 7.62 µM (inactive) | GI50 (DMS-273): 16.4 µM (inactive) | GI50 (UACC-62): 9.4 µM (inactive) | GI50 (HCT-116): 14.4 µM (inactive) | GI50 (ACHN): 25.3 µM (inactive) | GI50 (CCRF-CEM): 3.48 µM (inactive) | GI50 (OVCAR-4): 12.5 µM (inactive) | GI50 (HOP-62): > 100 µM (inactive) | GI50 (NCI-H23): 23.8 µM (inactive) | GI50 (A549): 33.3 µM (inactive) | GI50 (HOP-18): 6.46 µM (inactive) | GI50 (SNB-75): 7.91 µM (inactive) | GI50 (RXF 393): 19.9 µM (inactive) | GI50 (OVCAR-3): 31.6 µM (inactive) | GI50 (M19-MEL): 13.7 µM (inactive) | GI50 (Malme-3M): 32.4 µM (inactive) | GI50 (LXFL 529): 4.76 µM (inactive) | GI50 (U-251): 3.18 µM (inactive) | GI50 (SNB-19): 33 µM (inactive) | GI50 (RPMI-8226): 5.02 µM (inactive) | GI50 (HT-29): 20.5 µM (inactive) | GI50 (UO-31): 14.1 µM (inactive) | GI50 (KM12): 50.2 µM (inactive) | GI50 (CAKI-1): 47.4 µM (inactive) | GI50 (HCT-15): 9.35 µM | GI50 (M14): > 10 µM (inactive) | GI50 (SF-295): 23.3 µM (inactive) | GI50 (NCI-H226): 24.5 µM (inactive) | GI50 (DMS-114): 11.6 µM (inactive) | GI50 (OVCAR-8): 45.3 µM (inactive) | GI50 (HCC 2998): 53.8 µM (inactive) | GI50 (KM-20L2): 38.6 µM (inactive) | GI50 (A498): > 100 µM (inactive) | GI50 (786-0): 18.6 µM (inactive) | GI50 (NCI-H460): 37.8 µM (inactive) | GI50 (SNB-78): 16.5 µM (inactive) | GI50 (XF498): 12.7 µM (inactive) | GI50 (RXF 631): 21.9 µM (inactive) | GI50 (SK-MEL-2): 45.2 µM (inactive) | GI50 (SK-MEL-28): 19.1 µM (inactive) | GI50 (SK-OV-3): > 100 µM (inactive) | GI50 (HOP-92): 6.87 µM (inactive) | GI50 (NCI-H522): 3.32 µM (inactive) | GI50 (HL-60): 4.02 µM (inactive) | GI50 (COLO 205): > 100 µM (inactive) | GI50 (SF-268): 6.84 µM (inactive) | GI50 (SF-539): 22.3 µM (inactive) | GI50 (MOLT-4): 15.1 µM (inactive)
